Experimental data published in PubChem BioAssay AID1984 (Sanford-Burnham Center for Chemical Genomics, 2009).
Active and inactive are the calls of the source.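 How the source made its calls: active means EGFP signal decrease of at least 30% at 10 µM or well 3 SD below plate mean, unless failing retest; inactive means the rest, including hits failing retest or dose response.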

Target: p/CIP-EGFP fusion (nuclear receptor coactivator 3, mouse) (UniProt Q05BA5)
Test: compounds lowering mouse p/CIP (NCOA3) protein levels – fluorescence, F442A cells, EGFP fusion, primary screen (AID 1984);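 further: dose response run in MEF cells carrying p/CIP-EGFP rather than F442A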
Details: 16 h

p/CIP-EGFP fusion (nuclear receptor coactivator 3, mouse), sequence (Q05BA5 1-1403): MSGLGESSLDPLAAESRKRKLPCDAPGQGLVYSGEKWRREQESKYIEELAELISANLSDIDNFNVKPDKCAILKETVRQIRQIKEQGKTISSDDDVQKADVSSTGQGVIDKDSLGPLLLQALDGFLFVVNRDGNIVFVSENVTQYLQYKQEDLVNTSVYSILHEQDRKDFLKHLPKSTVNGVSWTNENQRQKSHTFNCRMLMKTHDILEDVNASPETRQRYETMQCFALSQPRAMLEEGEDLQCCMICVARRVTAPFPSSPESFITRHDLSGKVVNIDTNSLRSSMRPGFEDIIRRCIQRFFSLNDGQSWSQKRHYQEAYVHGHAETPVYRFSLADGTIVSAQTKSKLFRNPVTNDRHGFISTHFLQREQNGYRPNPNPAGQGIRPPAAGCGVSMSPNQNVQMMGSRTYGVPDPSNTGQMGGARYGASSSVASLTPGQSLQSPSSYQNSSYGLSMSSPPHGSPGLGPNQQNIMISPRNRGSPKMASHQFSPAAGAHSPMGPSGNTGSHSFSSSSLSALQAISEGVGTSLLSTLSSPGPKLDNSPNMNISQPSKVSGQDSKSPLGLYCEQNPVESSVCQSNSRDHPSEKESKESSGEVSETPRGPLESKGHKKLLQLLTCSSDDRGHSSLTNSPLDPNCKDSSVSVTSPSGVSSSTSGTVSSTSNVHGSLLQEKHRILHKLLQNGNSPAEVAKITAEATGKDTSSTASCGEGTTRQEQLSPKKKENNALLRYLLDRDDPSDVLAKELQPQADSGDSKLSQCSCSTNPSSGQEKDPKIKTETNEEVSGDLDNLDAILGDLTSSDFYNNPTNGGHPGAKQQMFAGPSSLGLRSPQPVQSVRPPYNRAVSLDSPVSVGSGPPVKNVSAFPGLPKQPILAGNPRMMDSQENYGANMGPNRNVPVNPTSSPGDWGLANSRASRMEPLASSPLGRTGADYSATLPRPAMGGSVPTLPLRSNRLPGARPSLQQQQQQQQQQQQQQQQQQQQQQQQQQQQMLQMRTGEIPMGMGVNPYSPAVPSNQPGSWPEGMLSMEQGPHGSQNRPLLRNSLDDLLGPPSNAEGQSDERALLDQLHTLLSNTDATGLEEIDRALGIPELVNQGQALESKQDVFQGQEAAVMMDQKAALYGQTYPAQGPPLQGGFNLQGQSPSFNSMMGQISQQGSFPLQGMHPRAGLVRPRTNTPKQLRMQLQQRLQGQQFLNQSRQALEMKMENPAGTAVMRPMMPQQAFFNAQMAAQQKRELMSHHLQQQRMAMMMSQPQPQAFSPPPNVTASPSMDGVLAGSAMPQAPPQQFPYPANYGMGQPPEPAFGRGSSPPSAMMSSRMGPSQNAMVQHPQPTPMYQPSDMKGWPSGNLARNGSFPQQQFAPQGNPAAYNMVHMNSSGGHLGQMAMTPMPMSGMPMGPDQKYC

Structure (SMILES) | IC50
COc1ccc(CS(=O)/C(Cl)=C(/Cl)C(=O)Nc2ccc(OC)nc2)cc1 (centres undefined) | 16.6 µM
CCOC(=O)c1c(C)[nH]c2c1-c1ccccc1C(=O)C2=O | 3.43 µM
CCOC(=O)N=Nc1c2ccccc2c2nc3no[nH]c3nc12 | 18.8 µM
O=C1C(Nc2ccccc2)=C/C(=N/S(=O)(=O)c2cccs2)c2ccccc21 | 3.77 µM
COc1ccc(NC(=O)/C(Cl)=C(/Cl)S(=O)Cc2ccc(Cl)cc2)cn1 (centres undefined) | inactive
Cc1oc2c(c1C(=O)NCc1cccnc1)C(=O)c1ccccc1C2=O | 4.3 µM
CCCc1nc2c(=O)n(C)c(=O)nc-2n(C)n1 | 5 µM

Continued, values first:

IC50 | Structure (SMILES)
2.3 µM | CC1CCN(S(=O)(=O)c2ccc3c(c2)C(=NO)c2cc(S(=O)(=O)N4CCC(C)CC4)ccc2-3)CC1
27 µM | CC(C)(C)c1cc[n+](C2=C([O-])c3ccccc3C(=O)/C2=N\S(=O)(=O)c2cccs2)cc1
14.8 µM | O=C1C(Cl)=C(NCCN2CCCCC2)C(=O)c2ccccc21
19.4 µM | Cc1ccc(NC2=C/C(=N\S(=O)(=O)c3cccs3)c3ccccc3C2=O)c(C)c1
2.69 µM | O=C1C(Nc2ccc(O)cc2)=C/C(=N/S(=O)(=O)c2cccs2)c2ccccc21
14.6 µM | Nc1ccc2c(c1)C(=O)C(=O)c1ccccc1-2
16.4 µM | Cc1ccccc1NC1=C/C(=N\S(=O)(=O)c2cccs2)c2ccccc2C1=O
